Some test systems named below: A498; A549; DLD-1; HCT-15; K562; KM12; LOX IMVI; NCI-H23; NCI-H460; OVCAR-5; OVCAR-8; SK-MEL-5; SNB-75; SR; SW-620; TK-10; UO-31; Hs-578T; MDA-MB-231; T47D.
Common to all, as to assay: NCI-60 cell line screen, 48 h

SMILES strings stand for the structures.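 Grown in 96-well plates, cells were treated for 48 hours with each compound at five concentrations. Insufficient inhibition: endpoint recorded as highest concentration tested. The concentration for 50% growth inhibition is given as GI50.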 Calls of active or inactive are those of the source. Cut-off read from the data, not from the text of the source: active = GI50 up to about 1.1 µM and inactive = higher. Where only a bound is given, the exact number is not on record here.

On to `O=C(NC(Cc1ccccc1)C(=O)CCl)OCc1ccccc1` (stereo not drawn), for which the GI50 is 14100 nM (inactive) with A498; 18200 nM (inactive) in the test on A549; 9640 nM (inactive) in the test on DLD-1; 5000 nM with HCT-15; 3200 nM (inactive) in the test on K562; 10000 nM (inactive) in the test with KM12. Further, the GI50 in the test on LOX IMVI is 1760 nM (inactive); with NCI-H23 it was 9200 nM (inactive); with NCI-H460 it was 5740 nM (inactive); in the test with OVCAR-5 it was 11800 nM (inactive); in the test with OVCAR-8, 4380 nM (inactive); with SK-MEL-5, 13400 nM (inactive). In addition, the GI50 with SNB-75 is 11500 nM (inactive); in the test with SR it was 6240 nM (inactive); with SW-620, 4260 nM (inactive); in the test on TK-10 it was 15000 nM (inactive); in the test with UO-31 it was 12900 nM (inactive).
Turning to `c1ccc(-c2ccnc3c2ccc2c(-c4ccccc4)ccnc23)cc1`, the GI50 in the test on A498 was 2530 nM (inactive); in the test on A549, 875 nM (active); in the test on DLD-1 it was 2470 nM (inactive); in the test on HCT-15, 1060 nM; in the test on K562, 621 nM (active); in the test on KM12, 628 nM (active). The GI50 is 2310 nM (inactive) with LOX IMVI; 1850 nM (inactive) in the test on NCI-H23; 2390 nM (inactive) with NCI-H460; 1040 nM (active) with OVCAR-5; 1480 nM (inactive) with OVCAR-8; 736 nM (active) in the test with SK-MEL-5. Further, the GI50 was 2920 nM (inactive) with SNB-75; 273 nM (active) with SR; 3720 nM (inactive) with SW-620; 279 nM (active) in the test with TK-10; 500 nM (active) with UO-31.
For the molecule `Cc1coc2c1C(=O)C(=O)c1ccccc1-2`, the GI50 in the test with A498 is 1830 nM (inactive); with A549, 2040 nM (inactive); in the test with DLD-1, 1980 nM (inactive); with HCT-15 it was 1270 nM; in the test with K562, 335 nM (active); in the test on KM12, 1810 nM (inactive). For the same molecule, the GI50 was 305 nM (active) with LOX IMVI; 1920 nM (inactive) with NCI-H23; 1770 nM (inactive) in the test on NCI-H460; 2110 nM (inactive) with OVCAR-5; 322 nM (active) in the test on OVCAR-8; 560 nM (active) with SK-MEL-5. For the same molecule, the GI50 in the test on SNB-75 is 1720 nM (inactive); with SR, 1380 nM (inactive); with SW-620, 1410 nM (inactive); in the test with TK-10 it was 1900 nM (inactive); in the test with UO-31 it was 3100 nM (inactive).
`CN1CCCC2(CCCc3ccccc32)C1` (stereo not drawn): the GI50 in the test on A498 is > 100000 nM (inactive); with A549 it was > 100000 nM (inactive); in the test on DLD-1, > 100000 nM (inactive); with HCT-15, greater than 100000 nM; in the test on K562, > 100000 nM (inactive); in the test with KM12 it was > 100000 nM (inactive). The GI50 with LOX IMVI, in the test on NCI-H23, in the test with NCI-H460, in the test with OVCAR-5, in the test on OVCAR-8 and with SK-MEL-5 was > 100000 nM (inactive) in each case. Also, the GI50 in the test with SNB-75 is > 100000 nM (inactive); with SR, > 100000 nM (inactive); in the test on SW-620, > 100000 nM (inactive); in the test on TK-10, > 100000 nM (inactive); in the test with UO-31, 80200 nM (inactive).
Regarding `COCC(=O)[C@]1(O)Cc2c(O)c3c(c(O)c2[C@@H](OC2CC(N)C(O)C(C)O2)C1)C(=O)c1c(OC)cccc1C3=O` (stereo partly drawn), the GI50 was 104 nM (active) in the test on A498; 219 nM (active) with A549; 53.2 nM (active) with DLD-1; 137 nM in the test with HCT-15; < 10 nM (active) with Hs-578T; 12.4 nM (active) with K562. Also, the GI50 with KM12 was 56.4 nM (active); with LOX IMVI, 19.1 nM (active); with MDA-MB-231, 296 nM (active); in the test on NCI-H23, 53.6 nM (active); in the test with NCI-H460, 23.5 nM (active); in the test with OVCAR-5, 220 nM (active). Besides, the GI50 in the test with OVCAR-8 was < 17.2 nM (active); with SK-MEL-5, 72.8 nM (active); in the test with SNB-75, 34.3 nM (active); with SR it was < 13.8 nM (active); in the test with SW-620, 20.9 nM (active); in the test with T47D, 106 nM (active). Besides, the GI50 in the test on TK-10 is 431 nM (active); in the test with UO-31 it was 88.3 nM (active).

The record behind these values is ChEMBL document CHEMBL1201862, “PubChem BioAssay data set” (2004).
